Literature values, collected in US7517693B2, “Method and apparatus for determining a molecular descriptor of absorption for a candidate compound” (North Carolina State University, priority 2002, dated 2009).

Columns and labels:
[1] = Table IV study compounds
[2] = Table III calibration compounds, known literature descriptor; for logL^16 (solute gas-hexadecane partition coefficient): 25° C.

## CCOC(=O)C(O)(c1ccc(Cl)cc1)c1ccc(Cl)cc1 [Chlorobenzilate]
[1]
  logKo/w: 4.74

## COC(=O)c1c(Cl)c(Cl)c(C(=O)OC)c(Cl)c1Cl [Dacthal]
[1]
  logKo/w: 4.28

## CNC(=O)Oc1cccc2ccccc12 [Carbaryl]
[1]
  logKo/w: 2.36

## COC(=O)c1ccccc1O [methyl salicylate]
[1]
  logKo/w: 2.55

## ClC1=C(Cl)C2(Cl)C3C4OC4C(Cl)C3C1(Cl)C2(Cl)Cl (stereo not drawn) [heptachlor epoxide]
[1]
  logKo/w: 4.98

## CCCCI [Compound 1-iodobutane, 1-iodobutane]
[1]
  logKo/w: 3.08

## Nc1ccccc1 [Aniline]
[1]
  logKo/w: 0.90

## Nc1ccc(C(=O)O)cc1 [4-aminobenzoic acid]
[1]
  logKo/w: 0.83

## Cc1cccc(O)c1 [m-cresol]
[1]
  logKo/w: 1.95

## COc1cc(Cl)c(OC)cc1Cl [Chloroneb]
[1]
  logKo/w: 3.44

## O=C(O)c1ccccc1O [salicylic acid]
[1]
  logKo/w: 2.26

## c1ncncn1 [1,3,5-triazine]
[1]
  logKo/w: −1.17

## COc1ccc(C(c2ccc(OC)cc2)C(Cl)(Cl)Cl)cc1 [Methoxychlor]
[1]
  logKo/w: 5.08

## COC(=O)c1cccnc1 [methyl nicotinate]
[1]
  logKo/w: 0.64

## Cc1cccc(C)c1 [m-xylene]
[1]
  logKo/w: 3.20

## CCCC(C)=O [Compound 2-pentanone, 2-pentanone]
[1]
  logKo/w: 0.91

## ClC(Cl)(Cl)Cl [Tetrachloromethane]
[2]
  logL^16 (solute gas-hexadecane partition coefficient): 2.823
  α (effective solute H-bond acidity): 0.00
  β (effective solute H-bond basicity): 0.00
  π (effective solute dipolarity and polarizability): 0.38

## Cl[C@H]1[C@H](Cl)[C@@H](Cl)[C@@H](Cl)[C@H](Cl)[C@H]1Cl [Lindane]
[1]
  logKo/w: 3.72

## CCOP(=S)(OCC)Oc1ccc([N+](=O)[O-])cc1 [Parathion]
[1]
  logKo/w: 3.83

## Oc1cccc(O)c1 [Resorcinol]
[1]
  logKo/w: 0.8

## c1ccc2cc3ccccc3cc2c1 [Anthracene]
[1]
  logKo/w: 4.45

## OCc1ccccc1 [Benzyl alcohol]
[2]
  logL^16 (solute gas-hexadecane partition coefficient): 4.221
  α (effective solute H-bond acidity): 0.33
  β (effective solute H-bond basicity): 0.56
  π (effective solute dipolarity and polarizability): 0.87

## CCC[N+](=O)[O-] [1-nitropropane]
[1]
  logKo/w: 0.87

## CCCCCCCCCCCCO [Compound 1-Dodecanol, 1-Dodecanol]
[2]
  logL^16 (solute gas-hexadecane partition coefficient): 6.640
  α (effective solute H-bond acidity): 0.37
  β (effective solute H-bond basicity): 0.48
  π (effective solute dipolarity and polarizability): 0.42

## Oc1ccc2ccccc2c1 [Compound 2-Naphthol, 2-Naphthol]
[2]
  α (effective solute H-bond acidity): 0.61
  β (effective solute H-bond basicity): 0.40
  π (effective solute dipolarity and polarizability): 1.08

## Cc1c(C)c(C)c(C)c(C)c1C [Hexamethylbenzene]
[2]
  logL^16 (solute gas-hexadecane partition coefficient): 6.557
  α (effective solute H-bond acidity): 0.00
  β (effective solute H-bond basicity): 0.21
  π (effective solute dipolarity and polarizability): 0.72

## c1ccc2c(c1)ccc1ccccc12 [Phenanthrene]
[2]
  logL^16 (solute gas-hexadecane partition coefficient): 7.632
  α (effective solute H-bond acidity): 0.00
  β (effective solute H-bond basicity): 0.26
  π (effective solute dipolarity and polarizability): 1.29

## CCCCCCCCCCCCN1CCCCCC1=O [Laurocapram]
[1]
  logKo/w: 6.28

## Oc1ccc(F)cc1 [4-Fluorophenol]
[2]
  logL^16 (solute gas-hexadecane partition coefficient): 3.844
  α (effective solute H-bond acidity): 0.63
  β (effective solute H-bond basicity): 0.23
  π (effective solute dipolarity and polarizability): 0.97

## CC(=O)CC(C)C [4-methyl-2-pentanone]
[1]
  logKo/w: 1.31

## Cc1ccc([N+](=O)[O-])cc1 [4-Nitrotoluene]
[2]
  logL^16 (solute gas-hexadecane partition coefficient): 5.154
  α (effective solute H-bond acidity): 0.00
  β (effective solute H-bond basicity): 0.28
  π (effective solute dipolarity and polarizability): 1.11

## ClCCl [Dichloromethane]
[2]
  logL^16 (solute gas-hexadecane partition coefficient): 2.019
  α (effective solute H-bond acidity): 0.10
  β (effective solute H-bond basicity): 0.05
  π (effective solute dipolarity and polarizability): 0.57

## OCC(F)(F)F [2,2,2-Trifluoroethanol]
[2]
  logL^16 (solute gas-hexadecane partition coefficient): 1.224
  α (effective solute H-bond acidity): 0.57
  β (effective solute H-bond basicity): 0.25
  π (effective solute dipolarity and polarizability): 0.60

## CCNc1nc(Cl)nc(NC(C)C)n1 [Atrazine]
[1]
  logKo/w: 2.61

## CCN(CC)CC [Triethylamine]
[2]
  logL^16 (solute gas-hexadecane partition coefficient): 3.040
  α (effective solute H-bond acidity): 0.00
  β (effective solute H-bond basicity): 0.79
  π (effective solute dipolarity and polarizability): 0.15

## C1CCCCC1 [Cyclohexane]
[2]
  logL^16 (solute gas-hexadecane partition coefficient): 2.964
  α (effective solute H-bond acidity): 0.00
  β (effective solute H-bond basicity): 0.00
  π (effective solute dipolarity and polarizability): 0.10

## CCCCCCF [1-Fluorohexane]
[2]
  logL^16 (solute gas-hexadecane partition coefficient): 2.951
  α (effective solute H-bond acidity): 0.00
  β (effective solute H-bond basicity): 0.10
  π (effective solute dipolarity and polarizability): 0.35

## CCOP(=O)(OCC)OCC [Triethyl phosphate]
[2]
  logL^16 (solute gas-hexadecane partition coefficient): 4.750
  α (effective solute H-bond acidity): 0.00
  β (effective solute H-bond basicity): 1.06
  π (effective solute dipolarity and polarizability): 1.00

## CC12CCC(CC1)C(C)(C)O2 [1,8-cineole]
[1]
  logKo/w: 2.74

## CCCCNCCCC [Di-n-butylamine]
[2]
  logL^16 (solute gas-hexadecane partition coefficient): 4.349
  α (effective solute H-bond acidity): 0.08
  β (effective solute H-bond basicity): 0.69
  π (effective solute dipolarity and polarizability): 0.30

## CCCCCCCl [1-Chlorohexane]
[2]
  logL^16 (solute gas-hexadecane partition coefficient): 3.777
  α (effective solute H-bond acidity): 0.00
  β (effective solute H-bond basicity): 0.10
  π (effective solute dipolarity and polarizability): 0.40

## CCN [Ethylamine]
[2]
  logL^16 (solute gas-hexadecane partition coefficient): 1.677
  α (effective solute H-bond acidity): 0.16
  β (effective solute H-bond basicity): 0.61
  π (effective solute dipolarity and polarizability): 0.35

## CCCCCO [Compound 1-Pentanol, 1-Pentanol]
[2]
  logL^16 (solute gas-hexadecane partition coefficient): 3.106
  α (effective solute H-bond acidity): 0.37
  β (effective solute H-bond basicity): 0.48
  π (effective solute dipolarity and polarizability): 0.42

## Nonylphenol
[1]
  logKo/w: 5.99

## CCCCN [n-Butylamine]
[2]
  α (effective solute H-bond acidity): 0.16
  β (effective solute H-bond basicity): 0.61
  π (effective solute dipolarity and polarizability): 0.35

## ClC=CCl [1,2-Dichloroethene]
[2]
  α (effective solute H-bond acidity): 0.11
  β (effective solute H-bond basicity): 0.05
  π (effective solute dipolarity and polarizability): 0.61

## C1COCCO1 [1,4-dioxane]
[1]
  logKo/w: −0.27

## O=[N+]([O-])c1ccc(O)cc1 [4-Nitrophenol]
[1]
  logKo/w: 1.91
[2]
  logL^16 (solute gas-hexadecane partition coefficient): 5.876
  α (effective solute H-bond acidity): 0.82
  β (effective solute H-bond basicity): 0.26
  π (effective solute dipolarity and polarizability): 1.72

## CN(C)C [Trimethylamine]
[2]
  logL^16 (solute gas-hexadecane partition coefficient): 1.620
  α (effective solute H-bond acidity): 0.00
  β (effective solute H-bond basicity): 0.67
  π (effective solute dipolarity and polarizability): 0.20

## O=S1OCC2C(CO1)C1(Cl)C(Cl)=C(Cl)C2(Cl)C1(Cl)Cl (stereo not drawn) [endosulfan II]
[1]
  logKo/w: 3.83
